Reference: patent US8039585B2, “Therapeutic administration of the scrambled anti-angiogenic peptide C16Y” (The United States of America as represented by the …, priority 2004, dated 2011)
Ends that are not written are not given here.

What was measured:
[1] = test system: HUVECs; assay: Endothelial cell tube-forming assay on Matrigel; type: cell-based, human; design: key to Disruption of tube formation / Activity (tube formation, truncated C16Y peptides): +: tubes slightly affected; ++: tubes moderately affected; +++: tubes disrupted; ++++: tubes completely disrupted; −: tubes resemble control; details: for Activity (tube formation, truncated C16Y peptides): truncated versions of C16Y, concentration not given; for Disruption of tube formation: 16 hours
Protocol: FIG. 3: Disruption of endothelial cell tube formation by C16Y peptide. 48-well plates were coated with 200 μl of Matrigel per well. Each well was treated with RPMI containing 24,000 human umbilical vein endothelial cells (HUVECS) and 100 mg/L endothelial cell growth factor in the presence of 10-75 μg/ml of C16 or scrambled C16 peptide for 16 hours. Control wells contained medium only. Cells were fixed and stained, and tube formation was scored by a blinded observer.
Tube-forming assays were performed as described previously (Ponce 2001). 48-well plates were coated with 200 μl/well of Matrigel (Gho 2001; Kubota 1988), a basement membrane matrix. HUVECs (24,000 cells/well) were plated in RPMI 1640 containing 10% bovine calf serum, defined and supplemented (HyClone Laboratories, Inc., Logan, Utah), along with 100 mg/liter of endothelial cell growth factor (Collaborative Biomedical). C16 or scrambled C16 peptides were added at concentrations ranging from 10-75 μg/ml. Control wells contained medium only. After 16 hours, cells were fixed and stained with Diff-Quick fixative (methanol) and solution II (6.25% (w/v) each of azure A and methylene blue) (Dade A G, Dudingen, Switzerland), and tube formation was scored by a blinded observer. Each peptide was tested at least in triplicate, and the assays were repeated a minimum of three times.
Tube formation assays were repeated using truncated versions of the C16Y peptide to determine the minimal active sequence of the peptide. The carboxyl end of C16Y was not necessary for activity, whereas the amino terminal aspartic acid was required. The minimal active sequence for the C16Y peptide is shown in SEQ ID NO: 2. Each of the peptides containing at least this 8 amino acid sequence (SEQ ID NOs: 1-5) inhibited tube formation.

[2] = test system: endothelial cell attachment to laminin-1; assay: Competition assay: block of endothelial cell adhesion to laminin-1; type: cell-based, human
Protocol: FIG. 2: Ability of C16 and scrambled C16 peptides to block laminin-1 endothelial cell adhesion. 96-well plates were coated with laminin-1 (0.5 μg) in the presence of competing C16 or scrambled C16 peptides (0-100 μg/ml). Each wells was treated with 0.1 ml of RPMI containing 35,000 human umbilical vein endothelial cells (HUVECs) for 1.5 hours at 37° C. Unbound cells were decanted, and attached cells were stained with crystal violet and quantified by measuring their absorbance at 600 nm. […] Bars represent ±SD.
Competition experiments were done using 96-well plates coated with laminin-1 (0.5 μg) in the presence of 0-100 μg/ml of competing C16, C16S, C16J, C16L, or C16Y synthetic laminin peptide as specified. Control wells were coated with BSA only. Wells were contacted with 0.1 ml of RPMI 1640 containing 35,000 HUVECs. After a 1.5-hour incubation at 37° C., unbound cells were decanted and attached cells were fixed and stained with 20% methanol/0.2% crystal violet. Dishes were extensively rinsed, and bound dye was solubilized in 2% SDS and quantitated at 600 nm. Assays were done in triplicate at least three times.

[3] = test system: human umbilical vein endothelial cells (HUVECs); assay: Endothelial cell adhesion to peptide-coated plates; type: cell-based; details: 0-5 μg coated, 1.5 hours
Protocol: FIG. 1: Endothelial cell adhesion by C16 and scrambled C16 peptides. 96-well plates were coated with either laminin-1 (0.5 μg), C16 peptide (0-5 μg), or scrambled C16 peptide (0-5 μg). Each well was rinsed with PBS, blocked with BSA, rinsed again with PBS, and then treated with 0.1 ml of RPMI containing 35,000 human umbilical vein endothelial cells (HUVECs) for 1.5 hours at 37° C. Unbound cells were decanted, and attached cells were stained with crystal violet and quantified by measuring their absorbance at 600 nm. Cells adhered to C16, C16S, and C16Y peptides. More cells adhered to C16Y than to any other peptide at all concentrations tested. Bars represent ±SD.
Endothelial cell adhesion assays were performed on 96-well plates coated overnight with either laminin-1 (0.5 μg) or synthetic laminin peptides C16, C16S, C16J, C16L, or C16Y (0-5 μg) as described previously (Malinda 1999). Wells were rinsed with PBS, blocked with 2 mg/ml of BSA, and rinsed again with PBS. Cell adhesion was performed using 0.1 ml of RPMI 1640 containing 35,000 HUVECs. After a 1.5-hour incubation period at 37° C., unbound cells were decanted and attached cells were fixed and stained with 20% methanol/0.2% crystal violet. Dishes were extensively rinsed, and bound dye was solubilized in 2% SDS and quantitated at 600 nm. Assays were done in triplicate at least three times.

[4] = Toxicity statement (no method described)
[5] = test system: bFGF-induced angiogenesis; assay: CAM assay, bFGF-induced angiogenesis; type: in vivo, chick; details: 50 ng bFGF + 0.05 μg peptide
Protocol: FIG. 5: Inhibition of bFGF-induced angiogenesis by C16Y. 50 ng of angiogenic stimulator (bFGF) and varying concentrations of either C16S or C16Y peptides were applied to 10-day old embryonated eggs in 5 μl of water, and CAMs were analyzed for the presence or absence of angiogenesis.
50 ng of angiogenic stimulator (bFGF) and varying concentrations of either C16S or C16Y peptides were applied to 10-day old embryonated eggs in 5 μl of water, and CAMs were analyzed after 3 days for the presence or absence of angiogenesis.

[6] = test system: C16-induced angiogenesis in the chick CAM; assay: CAM assay, C16-induced angiogenesis; type: in vivo
Protocol: FIG. 4: Inhibition of C16-induced angiogenesis by C16Y. 0.5 μg of angiogenic stimulator (C16 peptide) and varying concentrations of either C16S or C16Y peptides were applied to 10-day-old embryonated eggs in 5 μl of water. After 3 days, microphotographs were taken of the eggs to determine angiogenesis levels. Negative control eggs were treated with water only (panel a), while positive control eggs were treated with bFGF only (not shown). As expected, C16 peptide administered alone stimulated angiogenesis (panel d). […] When the amount of inhibitor peptide was lowered to 0.05 μg, C16Y peptide continued to inhibit angiogenesis (panel f), while C16S peptide had no effect (panel c).
The CAM assay was performed using 10-day-old embryonated eggs (CBT, Charlestown, Md.) as described previously (Gho 1999). On embryonal day 3, approximately 4 ml of ovalbumin was removed from each egg. After opening windows on embryonal day 10, the angiogenic stimulus (C16) and test competitor peptides in 5 μl of distilled water were applied to the CAM after drying on 13-mm diameter quartered plastic coverslips (Thermanox; Nalge, NUNC International, Naperville, Ill.). Three days later, the eggs were scored for a positive response and photographed. The positive control was bFGF, and the negative control was the vehicle water. Experiments were repeated twice using a minimum of 11 eggs for each data point.

[7] = test system: tumor growth and lung colonization; details: Fridman 1990; cited from earlier work

Q: Which “Activity (tube formation, truncated C16Y peptides)” value [1] does the source give for DFKLFAVYIKY [truncated version of C16Y] here?
A: ++

Q: With “SEQ ID NO: 6: peptide having the fibronectin sequence (residues 1023-1033) of c-elegans (DYKYFAVYYR) [reference compound]” as the substance, how does the “Effect on endothelial tube formation” value [1] read?
A: no ability to block endothelial tube formation

Q: What does the source list for “C16J: scrambled peptide of C16 (IKDYLTFARVKF-NH2) [Peptide C16J]”?
A: Inhibitory activity on laminin-1 cell adhesion ([2]; 0-100 μg/ml competing peptide): little activity at all of the doses tested; Effect on endothelial tube formation [1]: no activity at lower doses and only slight tube disruption at higher concentrations; Disruption of tube formation ([1]; peptide concentration 10 μg/ml): −; Disruption of tube formation ([1]; peptide concentration 25 μg/ml): −; Disruption of tube formation ([1]; peptide concentration 50 μg/ml): −; Disruption of tube formation ([1]; peptide concentration 75 μg/ml): −; Endothelial cell adhesion to coated peptide [3]: only weakly bound

Q: For YIKYR, which “Activity (tube formation, truncated C16Y peptides)” value [1] is on record?
A: −

Q: With KLFAVYIKYR [truncated version of C16Y] as the substance, how does the “Activity (tube formation, truncated C16Y peptides)” value [1] read?
A: −

Q: Which “Activity (tube formation, truncated C16Y peptides)” value [1] does the source give for DFKLF here?
A: −

Q: Which “Activity (tube formation, truncated C16Y peptides)” value [1] does the source give for VYIKYR here?
A: −

Q: With AVYIKYR [truncated version of C16Y] as the substance, how does the “Activity (tube formation, truncated C16Y peptides)” value [1] read?
A: −

Q: Which “Toxicity” value [4] does the source give for “DFKLFAVYIKYR-NH2 [Peptide C16Y, DFKLFAVYIKYR]” here?
A: not toxic

Q: Which “Inhibition of angiogenesis” value [5] does the source give for “C16S: scrambled peptide of C16, created as a negative control, with antagonist activity (KAFDITYVRLKF; Scrambled version of C16 peptide) [Peptide C16S, reference compound]” here?
A: no ability to inhibit angiogenesis

Q: What about the “Dose at which tube formation is disrupted (lowest active)” value ([1]; 10-75 μg/ml tested) of the same substance?
A: 50 µg/mL

Q: What about the “Disruption of tube formation” value ([1]; peptide concentration 10 μg/ml) of the same substance?
A: −

Q: And the “Disruption of tube formation” value ([1]; peptide concentration 25 μg/ml)?
A: −

Q: And the “Disruption of tube formation” value ([1]; peptide concentration 50 μg/ml)?
A: +++

Q: And the “Disruption of tube formation” value ([1]; peptide concentration 75 μg/ml)?
A: +++

Q: What about the “Inhibitory effect on angiogenesis” value ([6]; 0.5 μg C16 + 0.05 μg inhibitor peptide) of the same substance?
A: no longer generated an inhibitory effect

Q: What about the Reduction in angiogenesis ([6]; 0.5 μg C16 + 0.1 μg inhibitor peptide) of the same substance?
A: 52%

Q: And the Reduction in angiogenesis ([6]; 0.5 μg C16 + 0.2 μg inhibitor peptide)?
A: 63%

Q: And the “Angiogenesis with peptide administered alone” value ([6]; peptide alone (C16: 0.5 μg))?
A: neither C16Y (FIG. 4, panel e) nor C16S (data not shown) administered alone stimulated angiogenesis

Q: Which results are given for “C16L: scrambled peptide of C16 (LTFRAKVYFIKD-NH2) [Peptide C16L]”?
A: Dose showing some inhibition of attachment to laminin-1 [2]: > 75 µg/mL; Effect on endothelial tube formation [1]: no activity at lower doses and only slight tube disruption at higher concentrations; Disruption of tube formation ([1]; peptide concentration 10 μg/ml): −; Disruption of tube formation ([1]; peptide concentration 25 μg/ml): −; Disruption of tube formation ([1]; peptide concentration 50 μg/ml): +; Disruption of tube formation ([1]; peptide concentration 75 μg/ml): ++; Endothelial cell adhesion to coated peptide [3]: did not attach

Q: With FKLFAVYIKYR [truncated version of C16Y] as the substance, how does the “Activity (tube formation, truncated C16Y peptides)” value [1] read?
A: −

Q: For YIGSR, which “Activity lower than that of C16Y” value [7] is on record?
A: ~10 fold

Q: For DRKL, which “Activity (tube formation, truncated C16Y peptides)” value [1] is on record?
A: −

Q: For DFKLFA, which “Activity (tube formation, truncated C16Y peptides)” value [1] is on record?
A: −

Q: With LFAVYIKYR [truncated version of C16Y] as the substance, how does the “Activity (tube formation, truncated C16Y peptides)” value [1] read?
A: −

Q: With DFKLFAV [truncated version of C16Y] as the substance, how does the “Activity (tube formation, truncated C16Y peptides)” value [1] read?
A: −

Q: For DFKLFAVY (DFKLFAVY-NH2), which “Activity (tube formation, truncated C16Y peptides)” value [1] is on record?
A: ++

Q: For FAVYIKYR [truncated version of C16Y], which “Activity (tube formation, truncated C16Y peptides)” value [1] is on record?
A: −

Q: With DFKLFAVYIK [truncated version of C16Y] as the substance, how does the “Activity (tube formation, truncated C16Y peptides)” value [1] read?
A: ++

Q: With DFKLFAVYI [truncated version of C16Y] as the substance, how does the “Activity (tube formation, truncated C16Y peptides)” value [1] read?
A: ++
